Patent publication US20020049313A1, “Method for introducing foreign material into higher eukaryotic cells” (priority 1994, published 2002)
“Also recorded” adds a separate entry of the source.

Columns and labels:
[1] = tested on: primary human fibroblasts; assay: Luciferase gene expression after adenovirus-aided transferrinfection of primary human fibroblasts; format: cell-based; details: for improvement in gene expression: absence of E1B 19K, dexamethasone 10 μM, ibuprofen 100 μM, 5,8,11-eicosatriynoic acid 30 μM; for Induction (-fold) of luciferase expression: 3 μM dexamethasone, 24 hours after transfection
Description: Samples of biotinylated, psoralen/UV-inactivated adenovirus dl1014 (8 μl, 1×10^12 particles/ml) were diluted in 150 μl of HBS and mixed with 1 μg of StpL in […] of HBS for 30 minutes at ambient temperature. Aliquots of 6 μg of plasmid DNA (in the case of mixtures of pCMVL-DNA and another plasmid the ratio was 5:1) were diluted in 100 μl of HBS and then mixed with the adenovirus/StpL solution for 30 minutes at ambient temperature. Finally, a 100 μl aliquot of HBS, containing 5 μg of TfpL, was added to each sample, followed by 30 minutes' incubation at ambient temperature.
After surgical removal, skin biopsies were added to 4° C. DMEM containing 10% heat-inactivated FCS, 2 mM glutamine and gentamycin. The biopsies were carefully cut up in a tissue culture device using forceps and a surgical blade in a laminar air current in sterile 6 cm plastic dishes. Then 3 ml of DMEM, containing 20% FCS, 2 mM glutamine and antibiotics were added and the culture was placed in an incubator at 37° C. After 10 days the medium was replaced by DMEM containing 10% FCS. Then the medium was changed a further 2 times a week. 4 weeks after the start of cultivation the cells which had grown out of the tissue fragments were trypsinised and plated out into new culture dishes for transfection.
(§1) The luciferase activity was determined as described in WO 93/07283.
First of all, a series of experiments were carried out intended to establish whether the expression of certain adenovirus genes is capable of intensifying gene expression after transferrinfection. A defined quantity of the luciferase expression plasmid pCMVL (5 μg) was mixed with various plasmid DNA (1 μg in each), incorporated in TfpL/StpL/adenovirus transfection complexes (total volume 500 μl) and applied to primary human fibroblasts (50 μl of complex were applied to 2×10^4 cells per well in a 24-well plate, corresponding to 2.5×10^4 virus particles per cell, the measurements being carried out three times. In FIG. 4 “minus” denotes pSP65; the test DNA is specified in each case). The luciferase activity obtained was measured 48 to 72 hours after transfection. […] The E1 region contains two main gene functions, E1A and E1B. (The E1A products have the effect of separating E2F from the Rb protein and on the other hand they modulate the transcription activity of numerous cellular and adenovirus promoters. The main transcription-transactivator function is contained in the 13S gene product. The 1B gene codes for two main functions: the E1B 55K gene product binds p53 and changes its function. It is assumed that the 19K E1B gene product acts underneath p53 in order to block the apoptotic response).
In order to do this, transfection complexes containing pCMVL plus the plasmid pSP65, or the plasmids which contained the sequence for Bcl-2, E1A or E1B 19K (the quantities of reporter plasmid pCMVL and the relevant test plasmid were 5 μg and 1 μg, respectively, as in the previous Example), with virus particle numbers of 3×10^4 (FIG. 5A), 10^4 (FIG. 5B) or 3×10^3 (FIG. 5C) per cell were applied to primary fibroblasts and the luciferase activity was measured over a period of time. The transfections were carried out as described in the preceding Examples, the cells being given 6, 18 or 60 μl of transfection complex per well, containing 2×10^4 fibroblasts.
(In these experiments, the cells in a well were given 18 μl of transfection complex.) From day 10 onwards, the culture medium was replaced with fresh medium daily; the idea of this procedure was to lower the concentrations of toxins by changing the medium.

NF-KB = NF-KB luciferase reporter activation in A549 NF-KB cells; format: cell-based, human; details: 11 h, LPS 2.5 μg/ml, PMA 10^−8M
From the text: The plasmid pNF-KB-Luc responding to NF-KB was constructed as a derivative of the plasmid pTK3kbB described by Boehmelt et al., 1992. In order to do this, pTK3kbB was cut with XhoI and NcoI in order to remove the majority of the sequence coding for CAT, treated with Klenow enzyme and ligated with a Klenow-treated HindIII/SspI fragment of PRSVL, containing the luciferase sequence (De Wet et al., 1987). This yielded the plasmid p3K-Luc which contains a triple binding site for the transcription factor NF-KB plus the luciferase sequence, driven by a thymidine kinase (TK) TATA box.
(§2) In order to prepare the clonal cell lines, containing the reporter plasmid pNF-KB-Luc or pIL-6-Luc, the human lung cancer cell line A549 (ATCC CCL 185) was used as starting material. The plasmids were co-transfected with the neomycin-phosphotransferase-expression plasmid designated pmuatt (a pUC19 plasmid containing the TKneo-sequence; Grosveld et al., 1982) using the transfectam method (Behr et al., 1989) and selected for cells which are resistant to 400 μg/ml of G418 (Sigma). Clonal derivatives which expressed luciferase after induction by PMA were identified and expanded.
as §1
(§3) Stable clones of the lung epithelial carcinoma cell line A549 were produced, which contained pNF-KB-luc or pIL-6-luc as reporter gene construct. […]

[2] = tested on: IL-6 promoter (NF-IL-6/NF-KB); assay: IL-6 promoter luciferase reporter activation in A549 IL-6 cells; format: cell-based, human; details: A549/NF-IL-6 luciferase; 10 h; PMA 10^−8M, virus 10^4 Particle/cell
From the text: The construct described by Matsusaka et al., 1993 was used, which contains the luciferase sequence driven by the IL-6 promoter.
as §2, §1, §3
In order to determine the time sequence of the NF-IL-6-and NF-KB-activation, the cells of the two cell lines which were found in the above quantities in a 24 well plate or 6 well plate were each treated with 10^4 adenovirus dl1014 virus particles per cell (which corresponded to 4×10^8 virus particles for each well of the A549 NF-KB cells or 4×10^9 virus particles for each well of the A549 IL-6 cells). […]

CC(C)Cc1ccc(C(C)C(=O)O)cc1 (stereo not drawn) [ibuprofen, Ibuprofen]
improvement in gene expression [1]: only dexamethasone brings about a substantial improvement

C[C@@H]1C[C@H]2[C@@H]3CCC4=CC(=O)C=C[C@]4(C)[C@@]3(F)[C@@H](O)C[C@]2(C)[C@@]1(O)C(=O)CO [Dexamethasone, dexamethasone]
Induction (-fold) of luciferase expression ([1]; pCMVL/pCMV19K): 2.71 -fold
Induction (-fold) of luciferase expression ([1]; pCMVL/pSP65 (absence of pCMV19K)): 1.65 -fold

CCCCCCCCCCCCCC(=O)O[C@@H]1[C@@H](C)[C@@]2(O)[C@@H](C=C(CO)C[C@]3(O)C(=O)C(C)=C[C@@H]23)[C@@H]2C(C)(C)[C@]12OC(C)=O [PMA, Phorbolmyristylacetate]
Increase (-fold) (NF-KB): 2.0 (11 h) -fold
Increase (-fold) [2]: 2.0 (10 h) -fold

CC(=O)Oc1ccccc1C(=O)O [aspirin, acetylsalicylic acid]
effect on gene expression (luciferase) over time ([1]; 10 μM dexamethasone or 2 mM Aspirin from 2 hours after transfection, with and without E1B 19K): increase in gene expression both in the presence and in the absence of E1B 19K; also recorded: less marked than that of dexamethasone
interaction with the E1B 19K gene in increase of gene expression ([1]; 10 μM dexamethasone or 2 mM Aspirin, pCMV19K co-transfected): synergistic effect

CCCCCCCCC#CCC#CCC#CCCCC(=O)O [5,8,11-eicosatriynoic acid]
improvement in gene expression [1]: only dexamethasone brings about a substantial improvement
effect on gene expression ([1]; presence of E1B 19K, dexamethasone 10 μM, 5,8,11-eicosatriynoic acid 30 μM): synergistic effect
